# From US20140121231A1, “PYRANOPYRIDONE INHIBITORS OF TANKYRASE” (Hoffmann-La Roche, Inc., priority 2012, published 2014)
# Key:
# tankyrase 2 (His6-TNKS2) = target: T1, tankyrase 2 (His6-TNKS2) (Homo sapiens, UniProt Q9H2K2); test: μHTS-TNKS-IWR2 TR-FRET Binding Assay (Example 71), TNKS2; conditions: footnote 1: Tankyrase 1 and 2 inhibition assay in Example 71 (TR-FRET)
# T1 construct: His6-tankyrase 2 (construct: 934-1166) (His6-TNKS2)
# Procedure: (§1) μHTS-TNKS-IWR2 TR-FRET Binding Assay (10 μL/well in BD1536-well plate, a single point)
# Biotin-4-((1S,2R,6S,7R)-3,5-Dioxo-4-aza-tricyclo[5.2.1.0*2,6*]dec-8-en-4-yl)-N-(4-methyl-quinolin-8-yl)-benzamide (Biotin-IWR2): 10 mM Biotin-IWR2 stock in DMSO, stored at −20° C. Positive control: 10 mM 2-(4-Trifluoromethyl-phenyl)-3,5,7,8-tetrahydro-thiopyrano[4,3-d]pyrimidin-4-one (XAV939) in DMSO, stored at −20° C.
# (§2) Assay buffer 1a (AB1a) for TNKS dilution: 50 mM Tris, pH 7.4, 100 mM sodium chloride solution, 1 mM magnesium chloride solution, 1 mM DL-dithiothreitol solution, 0.2 mg/mL bovine serum albumin solution, 0.025% NP-40. Assay buffer 1b (AB 1b) for Biotin-IWR2 dilution: 50 mM Tris, pH 7.4, 100 mM sodium chloride solution, 1 mM magnesium chloride solution, 1 mM DL-dithiothreitol solution, 0.2 mg/mL bovine serum albumin solution, 0.05% NP-40 Assay buffer 1c (AB 1c) for compound dilution: 50 mM Tris, pH 7.4, 100 mM sodium chloride solution, 1 mM magnesium chloride solution, 1 mM DL-dithiothreitol solution, 0.2 mg/mL bovine serum albumin solution Assay buffer 2 (AB2) for Eu/APC: 50 mM Tris, pH 7.4, 100 mM sodium chloride solution, 1 mM magnesium chloride solution, 0.2 mg/mL bovine serum albumin solution
# (§3) Transfer 3 μL/well of above solution (solution 1,2,3) to an empty assay plate (BD1536-well plate) as follows: TOTAL and cpd wells: Solution 1 (Biotin-IWR2): BLANK wells: Solution 2 (No Biotin-IWR2): POSITIVE CONTROL wells: Solution 3 (Biotin-IWR2XAV939) Transfer 3 μL/well of the above diluted compound solutions or compound dilution buffer to the above assay plate. Add 2 μL/well of 300 nM TNKS stock solution (4) to every well in the above assay plate. Centrifuge the assay plate at 2100 rpm for 2 min. Incubate the assay plate at 26° C. for 30 minutes. Add 2 μL/well 3.5 nMEu/50 nM APC solution (5) to every well in the above assay plate. Centrifuge the assay plate at 2100 rpm for 2 min. Incubate the assay plate at 26° C. for 60 min.
# [1] = target: T2, PARP1 (His6-PARP1, full length) (Homo sapiens, UniProt P09874); test: TR-FRET Binding Assay (Example 71), PARP1; conditions: TR-FRET assay of Example 71 with His6-PARP1
# T2 construct: His6-PARP1 (full length) can be substituted for His6-TNKS 1
# T2 sequence (P09874 whole entry, species assumed): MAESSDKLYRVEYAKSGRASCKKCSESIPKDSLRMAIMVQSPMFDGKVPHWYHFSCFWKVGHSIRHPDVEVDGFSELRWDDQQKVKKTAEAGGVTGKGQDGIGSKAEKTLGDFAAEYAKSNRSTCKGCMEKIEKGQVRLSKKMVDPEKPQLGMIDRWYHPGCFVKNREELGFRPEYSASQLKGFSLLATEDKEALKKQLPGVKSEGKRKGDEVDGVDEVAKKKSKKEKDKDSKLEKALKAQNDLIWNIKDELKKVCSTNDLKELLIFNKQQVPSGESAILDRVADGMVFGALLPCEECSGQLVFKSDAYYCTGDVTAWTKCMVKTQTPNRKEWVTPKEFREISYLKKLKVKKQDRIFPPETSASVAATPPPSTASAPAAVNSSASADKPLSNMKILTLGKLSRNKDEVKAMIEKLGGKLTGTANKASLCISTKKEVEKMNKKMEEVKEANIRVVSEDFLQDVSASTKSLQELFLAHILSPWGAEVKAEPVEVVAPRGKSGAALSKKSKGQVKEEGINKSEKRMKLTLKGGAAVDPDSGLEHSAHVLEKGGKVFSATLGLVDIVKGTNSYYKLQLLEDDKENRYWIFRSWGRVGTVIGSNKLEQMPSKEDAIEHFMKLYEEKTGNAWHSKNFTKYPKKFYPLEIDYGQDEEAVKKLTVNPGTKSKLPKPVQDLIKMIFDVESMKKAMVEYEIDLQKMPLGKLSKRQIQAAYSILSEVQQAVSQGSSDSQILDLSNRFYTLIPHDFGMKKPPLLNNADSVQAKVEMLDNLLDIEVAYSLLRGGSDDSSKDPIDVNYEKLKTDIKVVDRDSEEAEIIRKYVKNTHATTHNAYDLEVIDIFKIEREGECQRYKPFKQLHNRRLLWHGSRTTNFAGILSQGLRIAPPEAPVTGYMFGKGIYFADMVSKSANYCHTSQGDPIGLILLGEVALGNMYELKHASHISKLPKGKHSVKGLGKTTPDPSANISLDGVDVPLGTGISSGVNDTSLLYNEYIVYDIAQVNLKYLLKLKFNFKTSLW
# Procedure: as §1
# Tankyrase 1 (TNKS1): 184.3 μM=5.2 mg/mL His6-TNKS1, MW=28.2 KDa (construct: 1088-1327, 1266M) in 20 mM Tris pH 8, 150 mM NaCl, 10% glycerol, and 0.5 mM TCEP. Alternatively, His6-tankyrase 2 (construct: 934-1166) (His6-TNKS2) or His6-PARP1 (full length) can be substituted for His6-TNKS 1.
# as §2
# Prepare Biotinylated IWR2 stock solution (3.33× stock) for TOTL and compound wells: 200 nM Biotin-IWR2 in 5% DMSO/AB1b buffer
# Prepare BLANK well stock solution: 5% DMSO/AB1b buffer Prepare POSITIVE CONTROL well stock solution (3.33× stock): 200 nM XAV939 in 200 nM Biotin-IWR2/5% DMSO/AB1b buffer Prepare TNKS1 stock solution (5× stock): 300 nM TNKS in AB1a buffer. (Alternatively, use TNKS2 or PARP1 stock solutions.) Prepare Eu/APC stock solution (5× stock): 3.5 nM Eu-SA/50 nM APC-His6Ab in AB2 buffer.
# Add 25 μL/well 1.5% DMSO/AB1c buffer in each compound well to the compound concentration at 74 μM in 8.8% DMSO/AB1c buffer or in the 2 μL DMSO CONTROL wells (BLANK, TOTAL and POSITIVE wells) in the compound plate. Transfer 3 μL/well of above solution (solution 1,2,3) to an empty assay plate (BD1536-well plate) as follows: TOTAL and cpd wells: Solution 1 (Biotin-IWR2): BLANK wells: Solution 2 (No Biotin-IWR2): POSITIVE CONTROL wells: Solution 3 (Biotin-IWR2XAV939) Transfer 3 μL/well of the above diluted compound solutions or compound dilution buffer to the above assay plate. Add 2 μL/well of 300 nM TNKS stock solution (4) to every well in the above assay plate. Centrifuge the assay plate at 2100 rpm for 2 min. Incubate the assay plate at 26° C. for 30 minutes. Add 2 μL/well 3.5 nMEu/50 nM APC solution (5) to every well in the above assay plate. Centrifuge the assay plate at 2100 rpm for 2 min. Incubate the assay plate at 26° C. for 60 min. Read the assay plate immediately at excitation wavelength of 330 nm and emission wavelength of […] in time resolved fluorescence mode.
# . Representative compound data for the PARP1 assay is in TABLE 2 (below) Values are in μM.
# Tankyrase 1 (TNKS1) = target: T3, Tankyrase 1 (TNKS1) (Homo sapiens, UniProt O95271); test: μHTS-TNKS-IWR2 TR-FRET Binding Assay (Example 71), TNKS1
# T3 construct: His6-TNKS1, MW=28.2 KDa (construct: 1088-1327, 1266M)
# T3 sequence (O95271 1088-1327): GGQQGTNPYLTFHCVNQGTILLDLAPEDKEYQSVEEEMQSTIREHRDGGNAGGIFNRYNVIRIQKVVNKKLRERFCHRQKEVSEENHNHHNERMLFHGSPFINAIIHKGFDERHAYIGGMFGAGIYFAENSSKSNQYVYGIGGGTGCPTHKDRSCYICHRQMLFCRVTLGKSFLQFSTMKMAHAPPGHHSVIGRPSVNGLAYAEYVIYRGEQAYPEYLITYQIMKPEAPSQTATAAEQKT
# Procedure: as §1, §2, §3
# T1 sequence (Q9H2K2 934-1166): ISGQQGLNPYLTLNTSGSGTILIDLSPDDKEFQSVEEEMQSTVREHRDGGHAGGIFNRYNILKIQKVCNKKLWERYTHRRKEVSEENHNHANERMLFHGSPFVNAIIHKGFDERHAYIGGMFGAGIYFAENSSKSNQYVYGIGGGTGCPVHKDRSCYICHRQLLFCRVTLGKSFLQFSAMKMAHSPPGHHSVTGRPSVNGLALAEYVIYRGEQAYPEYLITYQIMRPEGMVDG
SMILES,IC50 (tankyrase 2 (His6-TNKS2)) [nM],IC50 [1] [nM],IC50 (Tankyrase 1 (TNKS1)) [nM]
"CC(=O)N1CCC(C2Cc3[nH]c(=O)c4ccccc4c3CO2)CC1 (racemic) [Compound I-25, rac-2-(1-Acetyl-piperidin-4-yl)-1,2,4,10-tetrahydro-3-oxa-10-aza-phenanthren-9-one]",27,67.7,25.5
"CS(=O)(=O)N1CCC(C2Cc3[nH]c(=O)c4ccccc4c3CO2)CC1 (racemic) [Compound I-26, rac-2-(1-Methanesulfonyl-piperidin-4-yl)-1,2,4,10-tetrahydro-3-oxa-10-aza-phenanthren-9-one]",55.4,98.7,48.2
"CC(C)C1Cc2[nH]c(=O)c3ccc(Cl)cc3c2CO1 (racemic) [Compound I-27, rac-6-Chloro-2-isopropyl-1,2,4,10-tetrahydro-3-oxa-10-aza-phenanthren-9-one]",53.5,197,39.1
"CC(C)C1Cc2[nH]c(=O)c3ccsc3c2CO1 (racemic) [Compound I-28, rac-7-Isopropyl-5,6,7,9-tetrahydro-8-oxa-1-thia-5-aza-cyclopenta[a]naphthalen-4-one]",177,1920,81.8
"CC(C)(COCc1ccccc1)C1Cc2[nH]c(=O)c3ccccc3c2CO1 (racemic) [Compound I-29, rac-2-(2-Benzyloxy-1,1-dimethyl-ethyl)-1,2,4,10-tetrahydro-3-oxa-10-aza-phenanthren-9-one]",113,126,67.2
"O=c1[nH]c2c(c3cnccc13)COC(C1CCCC1)C2 (racemic) [Compound I-31, rac-7-Cyclopentyl-5,7,8,9-tetrahydro-6-oxa-3,9-diaza-phenanthren-10-one]",89.1,1790,70.8
"CC(C)OC(=O)N1CCC(C2Cc3[nH]c(=O)c4ccccc4c3CO2)CC1 (racemic) [Compound I-32, rac-4-(9-Oxo-1,4,9,10-tetrahydro-2H-3-oxa-10-aza-phenanthren-2-yl)-piperidine-1-carboxylic acid isopropyl ester]",40.5,81.8,30.8
"O=C(C1CC1)N1CCC(C2Cc3[nH]c(=O)c4ccccc4c3CO2)CC1 (racemic) [Compound I-33, rac-2-(1-Cyclopropanecarbonyl-piperidin-4-yl)-1,2,4,10-tetrahydro-3-oxa-10-aza-phenanthren-9-one]",52,94.8,36.5
"CC(C)(C)C1Cc2[nH]c(=O)c3ccncc3c2CO1 (racemic) [Compound I-34, rac-7-tert-Butyl-4a,5,7,8,9,10a-hexahydro-6-oxa-3,9-diaza-phenanthren-10-one]",183,3470,84.9
"CC(C)C1Cc2[nH]c(=O)c3ccc(C4CC4)cc3c2CO1 (racemic) [Compound I-38, rac-6-Cyclopropyl-2-isopropyl-1,2,4,10-tetrahydro-3-oxa-10-aza-phenanthren-9-one]",196,18700,91
"CC(C)(C)C1Cc2[nH]c(=O)c3sccc3c2CO1 (racemic) [Compound I-40, rac-7-tert-Butyl-5,6,7,9-tetrahydro-8-oxa-3-thia-5-aza-cyclopenta[a]naphthalen-4-one]",35.5,222,32.6
"Cc1cccc2c(=O)[nH]c3c(c12)COC(C(C)(C)C)C3 (racemic) [Compound I-41, rac-2-tert-Butyl-5-methyl-1,2,4,10-tetrahydro-3-oxa-10-aza-phenanthren-9-one]",26,46.9,21.2
"Cn1ncc2c(=O)[nH]c3c(c21)COC(C(C)(C)C)C3 (racemic) [Compound I-42, rac-7-tert-Butyl-1-methyl-5,6,7,9-tetrahydro-1H-8-oxa-1,2,5-triaza-cyclopenta[a]naphthalen-4-one]",87.7,2100,60.9
"CC(C)(C)C1Cc2[nH]c(=O)c3cnccc3c2CO1 (racemic) [Compound I-43, rac-7-tert-Butyl-5,7,8,9-tetrahydro-6-oxa-2,9-diaza-phenanthren-10-one]",49,876,43.9
"CC1(C(=O)N2CCC(C3Cc4[nH]c(=O)c5ccccc5c4CO3)CC2)CC1 (racemic) [Compound I-46, rac-2-[1-(1-Methyl-cyclopropanecarbonyl)-piperidin-4-yl]-1,2,4,10-tetrahydro-3-oxa-10-aza-phenanthren-9-one]",44.3,87.1,33.2
"O=c1[nH]c2c(c3ccccc13)COC(C1CCOCC1)C2 (racemic) [Compound I-47, rac-2-(Tetrahydro-pyran-4-yl)-1,2,4,10-tetrahydro-3-oxa-10-aza-phenanthren-9-one]",36.8,63.6,32.4
"CC(C)(C)C1Cc2[nH]c(=O)c3cccnc3c2CO1 (racemic) [Compound I-48, rac-2-tert-Butyl-1,2,4,10-tetrahydro-3-oxa-5,10-diaza-phenanthren-9-one]",55.4,437,34.6
"Cc1ccc2c(=O)[nH]c3c(c2n1)COC(C(C)(C)C)C3 (racemic) [Compound I-49, rac-2-tert-Butyl-6-methyl-1,2,4,10-tetrahydro-3-oxa-5,10-diaza-phenanthren-9-one]",77.5,3050,514
"O=C(C1CCOCC1)N1CCC(C2Cc3[nH]c(=O)c4ccccc4c3CO2)CC1 (racemic) [Compound I-50, rac-2-[1-(Tetrahydro-pyran-4-carbonyl)-piperidin-4-yl]-1,2,4,10-tetrahydro-3-oxa-10-aza-phenanthren-9-one]",44.2,104,35.6
"CC(C)(O)c1ccc2c(=O)[nH]c3c(c2c1)COC(C(C)(C)C)C3 (racemic) [Compound I-53, rac-2-tert-Butyl-6-(1-hydroxy-1-methyl-ethyl)-1,2,4,10-tetrahydro-3-oxa-10-aza-phenanthren-9-one]",13900,> 50000,1100
"CC(C)(C)C1Cc2[nH]c(=O)c3ccc(C#N)cc3c2CO1 (racemic) [Compound I-56, rac-2-tert-Butyl-9-oxo-1,4,9,10-tetrahydro-2H-3-oxa-10-aza-phenanthrene-6-carbonitrile]",1500,> 50000,133
